Results from US8501792B2, “Treating cancer with desthiazolyl ritonavir” (priority 2008, dated 2013).

Experiments:
ER+ lines = test: MTT proliferation assay, ER+ lines (IC90); format: cell-based; conditions: difference to ritonavir, read-out: IC90 values, amount less than ritonavir
Protocol: M1 inhibition of proliferation of MCF7, T47D and MDA-MB-231 cell lines was studied. Cells (n=2000/well) were seeded in 96 well plates with drug or vehicle (DMSO) on D1 and after 48 h the cell number was determined by MTT assay. Each assay was performed with 8 measurements for each data point (See FIG. 1, wherein graph A corresponds to MCF7, graph B corresponds to T47D, and graph C corresponds to MDA-MB-231).

[1] = tested on: H522 adenocarcinoma non-small cell lung cancer cell; test: MTT proliferation assay, H522; format: cell-based; conditions: 10 to 80 μmol/L, 48 hours, FIG. 18
Protocol: H522 adenocarcinoma non-small cell lung cancer cell proliferation was measured in 96-well plates by a 3-(4,5-dimethylthiazol-2-yl)-2,5 diphenyltetrazolium bromide (MTT) assay that measures reduction of MTT in 96-well plates (see Ohno M, Abe T. J Immunol Methods, 1991 Dec. 15; 145(1-2):199-203). The cells were exposed to 10 to 80 μmol/L ritonavir, M1 or DMSO vehicle for 48 hours and proliferation was subsequently quantified by MTT assay. The MTT was added to the medium at the endpoint and the plate was incubated for 2 hours. The plate was then centrifuged in an Allegra plate centrifuge at 2000 rpm for 5 minutes. The medium was removed, and the pellet was dissolved in 100 μL of DMSO per well. The pellet was dissolved using a gently vibrating platform. The plates were read with a BioTek Synergy plate reader in colorimetric mode at 540 nm. Each assay was performed in octuplicate for each data point.

Structure (SMILES): CC(C)c1nc(CN(C)C(=O)NC(C(=O)NC(Cc2ccccc2)CC(O)C(N)Cc2ccccc2)C(C)C)cs1 (centres unmarked) [M1, desthiazolyl ritonavir]
- IC90 (ER+ lines): > 30 µM
- measured cell proliferation compared to cells exposed to ritonavir or DMSO [1]: lower
